Where a SMILES comes first, the peptide text is derived from it. Bridges are numbered along the chain shown (N, C = ends).
Legend:
[1] = system: VEGF; test: phage spot ELISA on VEGF; type: binding; details: for S/N: phage spot ELISA signal/noise; for S/N / ELISA: S3 Table sheet VEGF; for ELISA: phage spot ELISA signal
Excerpt: (§1) To determine the performance of the libraries for ligand discovery we chose a panel of eight protein targets, which have no structural homology and a wide mass range (Fig 7C). We screened these eight targets with solution panning strategy and two additional plate panning for CD8α/β and CD28, thus ten panning campaigns in total. We consider clones showing spot phage ELISA signal > 0.3 and signal/noise ratio > 2 as positive hits. At least one binding hit was discovered for nine out of the ten panning campaigns, surpassing the success rate of the best DCP scaffolds reported previously. We also obtained the NGS data for these screening and the ranking of clones for their enrichment along the rounds of screening was analyzed and considered the top-ranking clones as potential hits. Based on their sequence diversity we selected 16 potential hits spanning five protein targets for peptide synthesis in their linear form. Seven of these are hits with positive phage ELISA signal and nine were selected based on NGS ranking without spot ELISA available. Subsequently, we conducted in vitro folding experiments on these peptides in various buffers. We observed a strong propensity for spontaneous folding regardless of the buffer condition. All HCP hits tested successfully folded into three-disulfide-containing product within two days in a universal buffer system (PBS, pH 7.4, 50% DMSO) without the need for a redox pair, as shown in Fig 8A. The binding of these folded peptides to their respective target proteins was confirmed using SPR (Table 4 and S1 Data) and binding kinetics are exemplified by the high-affinity peptide 5ji4-CRD7-2 (see Fig 8B). Among seven selected ELISA-positive hits, all of them were successfully synthesized and in vitro folded with three disulfide bonds and five were proven to be validated binders by SPR (Table 4). Nine peptides selected from the NGS ranking were synthesized and folded with the expected number of disulfide bonds and five of them bound to their target with affinities in the μM range as determined by SPR (Table 4). In general, binding affinities for these SPR-validated initial hits are weak, with Kd values in the micromolar range and fast on- and off-rates. There are two exceptions with binding affinities in the nanomolar range.
(§2) The 5ji4 libraries were constructed following the Kunkel mutagenesis method and the solution panning protocol was followed as previously described. After four to five rounds of binding selection, while eluted pool was subjected to NGS analysis, individual phage clones were also picked and analyzed with phage spot ELISA. Positive clones were subjected to SANGER sequencing.

[2] = system: CD28; test: phage spot ELISA on CD28; type: binding; details: S3 Table sheet CD28-1 (panning campaign 1); for S/N: phage spot ELISA signal/noise; for ELISA: phage spot ELISA signal
Excerpt: as §1, §2

Compound | S/N [1] | ELISA [1] | also measured
PCECFILGMAVGQSSSEECERLCRKLGVTNCRVHCG [VEGF clone 23, phage clone, 5JI4 library, VEGF panning] | 29.8545 | 3.284 | 
PCECYLPKVMVGFSSSEECERLCRNLGVTNCRVHCG [VEGF clone 10, phage clone, 5JI4 library, VEGF panning] | 12.4652 | 3.939 | 
PCECYMSNVNVGESSSEECERLCRKLGVTNCRVHCG [VEGF clone 22, phage clone, 5JI4 library, VEGF panning] | 29.6607 | 3.322 | 
PANAVIRTWIIFASSEECERLCRKLGVTNCRVHCG [CD28-1 clone 5, phage clone, 5JI4 library, CD28-1 panning] |  |  | S/N [2]: 3.189; ELISA [2]: 0.3
PCECVVLDTVVGKASSEECERLCRKLGVTNCRVHCG [VEGF clone 17, phage clone, 5JI4 library, VEGF panning] | 37.5957 | 3.534 | 
PCECYIYNTGAGWGSSEECARLCRKLGVTNCRVHCG [VEGF clone 15, phage clone, 5JI4 library, VEGF panning] | 30.6033 | 3.703 | 
PCECYFQGVNVGESSSEECERLCRKLGVTNCRVHCG [VEGF clone 16, phage clone, 5JI4 library, VEGF panning] | 40.618 | 3.615 | 
PRECDEDNIWIIANSSEECERLCRKLGVTNCRVHCG [CD28-1 clone 9, phage clone, 5JI4 library, CD28-1 panning] |  |  | S/N [2]: 1.511; ELISA [2]: 0.213
PCECQENTTFIIYSSSEECERLCRKLGVTNCRVHCG [CD28-1 clone 12, phage clone, 5JI4 library, CD28-1 panning] |  |  | S/N [2]: 1.979; ELISA [2]: 0.192
PCECPRWWSHDGGYSSEECERLCRKLGVTNCRVHCG [VEGF clone 11, phage clone, 5JI4 library, VEGF panning] | 38.9 | 3.89 | 
CC(C)C[C@@H]1NC(=O)[C@H](CCCNC(=N)N)NC(=O)[C@H](CCCCN)NC(=O)[C@@H]2CSSC[C@H](NC(=O)[C@H](CCC(=O)O)NC(=O)[C@@H](NC(=O)[C@@H]3CCCN3)CSSC[C@@H](C(=O)NCC(=O)O)NC(=O)[C@H](Cc3c[nH]cn3)NC(=O)[C@H](C(C)C)NC(=O)[C@H](CCCNC(=N)N)NC(=O)[C@@H]3CSSC[C@H](NC1=O)C(=O)N[C@@H](Cc1c[nH]c4ccccc14)C(=O)NCC(=O)N[C@@H](Cc1ccccc1)C(=O)NCC(=O)N[C@@H](CCC(N)=O)C(=O)N[C@@H](CO)C(=O)N[C@@H](CC(=O)O)C(=O)N3)C(=O)N[C@@H](CC(=O)O)C(=O)N[C@@H](C(C)C)C(=O)N[C@@H](CC(N)=O)C(=O)N[C@@H](C(C)C)C(=O)N[C@@H](CCC(=O)O)C(=O)N[C@@H]([C@@H](C)O)C(=O)N[C@@H](Cc1ccc(O)cc1)C(=O)N[C@@H]([C@@H](C)O)C(=O)N[C@@H](C(C)C)C(=O)N[C@@H](CO)C(=O)N[C@@H](CO)C(=O)N[C@@H](CO)C(=O)N[C@@H](CCC(=O)O)C(=O)N[C@@H](CCC(=O)O)C(=O)N2 [5ji4-VEGF-3] (H-PCECDVNVETYTVSSSEECKRLCWGFGQSDCRVHCG-OH; disulfide 2-35, 4-19, 23-31) |  |  | ELISA signal ([1]; phage spot ELISA of the clone, positive hit: signal > 0.3 and signal/noise > 2): 3.07; ELISA s/n ([1]; phage spot ELISA signal/noise ratio): 32.18
PCECLMYRVXVGHSSSEACERLCRKLGVTNCRVHCG [VEGF clone 3, phage clone, 5JI4 library, VEGF panning] | 42.6 | 4.34 | 
PCESQSMQHFIIYNSSEECERLCRKLGVTNCRVHCG [CD28-1 clone 1, phage clone, 5JI4 library, CD28-1 panning] |  |  | S/N [2]: 4.839; ELISA [2]: 0.542
PYECWRGQYFIIYKSSEECERLCRKLGVTNCRVHCG [CD28-1 clone 11, phage clone, 5JI4 library, CD28-1 panning] |  |  | S/N [2]: 2.209; ELISA [2]: 0.201
PCECDVNGETYTVSSSEGCERLCSWDTRRMCRVHCG [CD28-1 clone 14, phage clone, 5JI4 library, CD28-1 panning] |  |  | S/N [2]: 2.852; ELISA [2]: 0.231
PCECYFYDIVVGFSSSEECERLCRKLGVTNCRVHCG [VEGF clone 1, phage clone, 5JI4 library, VEGF panning] | 58.3 | 6.00 | 
PCECWFYDALVGWTSSEECERLCRKLGVTNCRVHCG [VEGF clone 7, phage clone, 5JI4 library, VEGF panning] | 41.3 | 4.13 | 
PCECYFQXVKVGESSSEECERLCRKLGVTNCRVHCG [VEGF clone 6, phage clone, 5JI4 library, VEGF panning] | 32.5 | 4.23 | 
PCECMFHGVPVGFSSSEECERLCRKLGVTNCRVHCG [VEGF clone 8, phage clone, 5JI4 library, VEGF panning] | 37.2 | 4.06 | 

Compound | S/N [1] | ELISA [1] | also measured
PCECHFXGVHVGRSSSEECERLCRKLGVTNCRVHCG [VEGF clone 12, phage clone, 5JI4 library, VEGF panning] | 15.0395 | 3.805 | 
PCECLMYGHHVGSASSEECERLCRKLGVTNCRVHCG [VEGF clone 19, phage clone, 5JI4 library, VEGF panning] | 36.6559 | 3.409 | 
RANATEWVPWIIYQSSEECERLCRKLGVTNCRVHCG [CD28-1 clone 2, phage clone, 5JI4 library, CD28-1 panning] |  |  | S/N [2]: 5.637; ELISA [2]: 0.5
PCECWMYHTNVGHGSSEECERLCRKLGVTNCRVHCG [VEGF clone 21, phage clone, 5JI4 library, VEGF panning] | 29.9279 | 3.322 | 
PCESIQDVWIIHDSSEECERLCRKLGVTNCRVHCG [CD28-1 clone 6, phage clone, 5JI4 library, CD28-1 panning] |  |  | S/N [2]: 2.28; ELISA [2]: 0.244
PCECFMMEVKVGTGSSEECERLCRKLGVTNCRVHCG [VEGF clone 14, phage clone, 5JI4 library, VEGF panning] | 42.5632 | 3.703 | 
LECSHLQMFVIYNSSEECERLCRKLGVTSCRVHCG [CD28-1 clone 10, phage clone, 5JI4 library, CD28-1 panning] |  |  | S/N [2]: 2.405; ELISA [2]: 0.202
PCECYFETTHVGFASSEECERLCRKLGVTNCRVHCG [VEGF clone 18, phage clone, 5JI4 library, VEGF panning] | 10.4498 | 3.438 | 
PCECIILNVVVGESSSEECERLCRKLGVTNCRVHCG [VEGF clone 4, phage clone, 5JI4 library, VEGF panning] | 2.9 | 4.32 | 
PCECFMYGVYVGHSSSEACERLCRKLGVTNCRVHCG [VEGF clone 9, phage clone, 5JI4 library, VEGF panning] | 39.95 | 3.995 | 
PCECDVNGETYTVSSSEECERPCSWNEAFSCRVHCG [CD28-1 clone 15, phage clone, 5JI4 library, CD28-1 panning] |  |  | S/N [2]: 2.576; ELISA [2]: 0.219
PCECITKWSDWGFSSSEECERLCRKLGVTNCRVHCG [VEGF clone 24, phage clone, 5JI4 library, VEGF panning] | 9.024 | 0.767 | 
PCECIXXDSFVGKSSSEECERLCRKLGVTNCRVHCG [VEGF clone 25, phage clone, 5JI4 library, VEGF panning] | 3.092 | 0.269 | 
PCECDHMQYFILYESSEECERLCRKLGVTNCRVHCG [CD28-1 clone 7, phage clone, 5JI4 library, CD28-1 panning] |  |  | S/N [2]: 2.516; ELISA [2]: 0.234
PCECDVNVETYTVSSSEECKRLCWGFGQSDCRVHCG [VEGF clone 26, phage clone, 5JI4 library, VEGF panning] | 30.2373 | 3.568 | 
PCECYFSNTMVGHSSSEECERLCRNLGVTNCRVHCG [VEGF clone 5, phage clone, 5JI4 library, VEGF panning] | 40.6 | 4.23 | 
PCECQFYGTMVGWSSSEECERLCRKLGVTNCRVHCG [VEGF clone 20, phage clone, 5JI4 library, VEGF panning] | 37.3956 | 3.403 | 
PCECFFNAVKVGWSSSEECERLCRKLGVTNCRVHCG [VEGF clone 13, phage clone, 5JI4 library, VEGF panning] | 35.8857 | 3.768 | 
PCECFMYDILVGLASSEECERLCRKLGVTNCRVHCG [VEGF clone 2, phage clone, 5JI4 library, VEGF panning] | 30.9 | 6.00 | 

— publication PMC11611271, “Rapid prediction of key residues for foldability by machine learning model enables the design of highly functional libraries with hyperstable constrained peptide scaffolds” (PLOS Computational Biology, 2024)
